Laboratory results published in patent US20250205265A1, “ASPERULOSIDE AS AN AGENT FOR IMPROVING VASCULAR AND METABOLIC FUNCTION IN OBESITY: ROLE OF NRF2 ACTIVATION” (The Chinese University of Hong Kong, priority 2023, published 2025).
Entries after “also recorded” stand apart in the source; their conditions may differ. Read-outs that look alike come from different tables or passages of the source.

Key:
Nrf2 [1] = test: Nrf2 nuclear translocation in primary adipocytes (immunofluorescence); type: cell-based, mice; details: 40 μmol/L ASP for 24 hours
Procedure: (§1) Primary adipocytes were treated with 40 μmol/L ASP (FIG. 22A) or different doses of ASP (FIG. 22B) for 24 hours. […] Scale bar, 50 μm (FIG. 22B). Data represent means±SEM of 4 experiments. P values were determined using One-way ANOVA. *p<0.05.
(§2) After induction of obesity in C57BL/6 male mice fed with the high-fat diet for twelve weeks, they were treated daily with ASP (50 mg/kg) via oral gavage for seven weeks in vivo study. C57BL/6 mice aortae were used for ex vivo studies. Endothelial cells, HepG2 and primary adipocytes were used for in vitro studies. Vascular function was determined by wire myograph. H&E staining was employed for histological examination. Oil Red O staining was used to determine lipid droplets in tissues and cells. DHE and MitoSOX staining were used to detect ROS levels. QPCR, aortic en-face immunofluorescence staining, and Western blotting were used to analyze mRNA and protein expressions. ARE binding activity was determined by Dual luciferase reporter assay. Small interfering (si)RNA of Nrf2 and HO-1, inhibitors of Nrf2 (ML385, Cat. No.: HY-100523) and HO-1 (OB-24, HY-118487) were used to elucidate the mechanistic pathway of ASP's action.

HepG2 cells [2] = test: ATP production in PA-treated HepG2 cells; type: cell-based
Procedure: as §2

VCAM-1 and ICAM-1 = test: Endothelial activation (VCAM-1 and ICAM-1) in endothelial cells; type: cell-based
Procedure: (§3) After induction of obesity in C57BL/6 male mice fed with high fat diet for twelve weeks, they were treated daily with ASP (50 mg/kg) via oral gavage for seven weeks in vivo study. C57BL/6 mice aortae were used for ex vivo study and endothelial cells were used for in vitro study. Vascular function was determined by wire myograph. DHE and MitoSOX staining were used to detect ROS levels. QPCR, aortic en-face immunofluorescence staining, and Western blotting were used to analyze mRNA and protein expressions. Small interfering (si)RNA of Nrf2 and HO-1, inhibitors of Nrf2 (ML385, Cat. No.: HY-100523) and HO-1 (OB-24, HY-118487) were used to elucidate the mechanistic pathway of ASP's action.
as §2, with “QPCR, aortic en-face immunofluorescence staining, and Western blotting were used to analyze mRNA and protein expressions.” left out, “Small interfering (si)RNA of Nrf2 and HO-1, inhibitors of Nrf2 (ML385, Cat. No.: HY-100523) and HO-1 (OB-24, HY-118487) were used to elucidate the mechanistic pathway of ASP's action.” left out

FAS, ACC2, SREBP1C, HSL = test: Real-time PCR of lipid metabolism genes in PA-treated HepG2 cells; type: cell-based
Procedure: as §2

Nrf2 [3] = test: Real-time PCR of Nrf2 in obese mice aortas; type: in vivo
Procedure: as §3
as §2, with “QPCR, aortic en-face immunofluorescence staining, and Western blotting were used to analyze mRNA and protein expressions.” left out, “Small interfering (si)RNA of Nrf2 and HO-1, inhibitors of Nrf2 (ML385, Cat. No.: HY-100523) and HO-1 (OB-24, HY-118487) were used to elucidate the mechanistic pathway of ASP's action.” left out

[4] = tested on: Nrf2/antioxidant responsive element (ARE); test: ARE binding activity, luciferase reporter assay in endothelial cells; type: cell-based; details: for endothelial Nrf2/ARE binding, higher than the binding to impaired endothelial cells: worded as embodiment, cf. FIG. 3D
Procedure: as §2

obese mice livers [5] = test: ATP levels in obese mice livers; type: in vivo
Procedure: as §2

[6] = tested on: HO-1, SIRT1, SIRT6, and SOD2; test: Real-time PCR of Nrf2 downstream genes in PA-treated HepG2 cells; type: cell-based
Procedure: as §2

primary adipocytes = test: Real-time PCR in primary adipocytes; type: cell-based, mice
Procedure: Primary adipocytes were treated with ASP overnight. […] Data represent means±SEM of 4 mice. P values were determined using One-way ANOVA. *p<0.05.
as §1, §2

Nrf2 [7] = test: Nrf2 nuclear translocation in endothelial cells; type: cell-based
Procedure: as §3, §2

HO-1 = test: Aortic en-face immunofluorescence staining of HO-1; parameters: species or system mice
Procedure: as §3, §2

obese mice livers [8] = test: DHE staining of obese mice livers; type: in vivo
Procedure: as §2

C57BL/6 mice aortae = test: Ex vivo wire myograph, IL-1β-impaired EDRs in mouse aortas; details: for EDRs: IL-1β
Procedure: as §3, §2

Npra, Hsl, Fas, Acc2 = test: Real-time PCR of lipid metabolism genes in obese mice livers; type: in vivo
Procedure: as §2

Nrf2 protein = target: T1, Nrf2 protein (Mus musculus, UniProt Q60795); test: CETSA in endothelial cells; type: binding; details: ASP 40 μmol/L
T1 construct: endogenous in cells
Procedure: The Nrf2 protein expression was normalized to total protein. P values were determined using One-way ANOVA. *p<0.05. Data represent means±SEM of 3 experiments.

Nrf2/ARE = test: Dual-luciferase assay of ARE binding in PA-treated HepG2 cells; type: cell-based
Procedure: as §2

HepG2 cells [9] = test: DHE staining of palmitic acid-treated HepG2 cells; type: cell-based; details: Nrf2-inhibited HepG2 cells
Procedure: as §2

[10] = tested on: lipid droplets in obese mice livers; test: H&E and Oil Red O staining of obese mice livers; type: in vivo; details: ASP 50 mg/kg oral gavage daily for seven weeks
Procedure: as §2

endothelial cells = test: ROS level in endothelial cells; type: cell-based
Procedure: as §3
as §2, with “QPCR, aortic en-face immunofluorescence staining, and Western blotting were used to analyze mRNA and protein expressions.” left out, “Small interfering (si)RNA of Nrf2 and HO-1, inhibitors of Nrf2 (ML385, Cat. No.: HY-100523) and HO-1 (OB-24, HY-118487) were used to elucidate the mechanistic pathway of ASP's action.” left out

ROS [11] = test: DHE staining of ROS in obese mice aortic sections; type: in vivo; details: ASP 50 mg/kg oral gavage daily for seven weeks
Procedure: as §3
as §2, with “QPCR, aortic en-face immunofluorescence staining, and Western blotting were used to analyze mRNA and protein expressions.” left out, “Small interfering (si)RNA of Nrf2 and HO-1, inhibitors of Nrf2 (ML385, Cat. No.: HY-100523) and HO-1 (OB-24, HY-118487) were used to elucidate the mechanistic pathway of ASP's action.” left out

SDHC = test: Real-time PCR of SDHC in PA-treated HepG2 cells; type: cell-based; details: PA-treated HepG2 cells when Nrf2 is inhibited
Procedure: as §2

ROS [12] = test: Ex vivo DHE staining of ROS in IL-1β-treated aortas; parameters: species or system mice
Procedure: as §3, §2

[13] = tested on: perirenal adipose tissues; test: Weight and sizes of perirenal adipose tissues in obese mice; type: in vivo
Procedure: as §2

[14] = 250 μmol/L PA-treated HepG2 cells for 16 hours

T1 sequence (Q60795 whole entry): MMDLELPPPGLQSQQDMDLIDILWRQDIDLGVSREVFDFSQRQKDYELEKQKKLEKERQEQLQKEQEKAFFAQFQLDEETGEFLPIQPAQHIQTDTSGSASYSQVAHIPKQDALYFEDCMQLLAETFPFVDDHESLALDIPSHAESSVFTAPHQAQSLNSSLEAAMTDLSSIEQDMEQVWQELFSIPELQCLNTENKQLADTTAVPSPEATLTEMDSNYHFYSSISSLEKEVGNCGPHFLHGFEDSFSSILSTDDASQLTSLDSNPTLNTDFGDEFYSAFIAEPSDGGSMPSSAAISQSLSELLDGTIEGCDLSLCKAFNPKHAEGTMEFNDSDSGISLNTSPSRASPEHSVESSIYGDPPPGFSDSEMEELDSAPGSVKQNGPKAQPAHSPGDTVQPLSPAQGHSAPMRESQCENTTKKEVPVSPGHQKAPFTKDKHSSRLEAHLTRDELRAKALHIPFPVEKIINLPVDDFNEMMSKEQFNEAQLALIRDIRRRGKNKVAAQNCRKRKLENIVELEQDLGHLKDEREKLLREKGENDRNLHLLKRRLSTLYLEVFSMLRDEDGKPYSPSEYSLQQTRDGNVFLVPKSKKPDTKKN

Substance: Asperuloside
- Nrf2 nuclear translocation (Nrf2 [1]): stimulates Nrf2 nuclear translocation in adipocytes
- production of ATP (HepG2 cells [2]): restores the decreased production of ATP
- production of ATP (HepG2 cells [2]; inhibition of Nrf2): inhibition of Nrf2 eliminates the rescue effect of ASP
- endothelial activation (VCAM-1 and ICAM-1; HO-1-silencing (HO-1-siRNA transfected) endothelial cells): fails to decrease ROS level (FIG. 2E) or inhibit endothelial activation; also recorded: failed to prevent endothelial dysfunction in HO-1 inhibited aortae (FIGS. 2A-2D) and HO-1-siRNA transfected endothelial cells
- overexpression of VCAM-1 and ICAM-1 (VCAM-1 and ICAM-1; endothelial cells): inhibits overexpression of VCAM-1 and ICAM-1
- mRNA levels of FAS, ACC2 and SREBP1C (FAS, ACC2, SREBP1C, HSL; Nrf2-inhibited HepG2 cells): fails to decrease its expression levels
- PA-stimulated overexpression of mRNA levels of FAS, ACC2 and SREBP1C (FAS, ACC2, SREBP1C, HSL; PA-treated HepG2 cells): inhibited by ASP treatment
- HSL mRNA expression (FAS, ACC2, SREBP1C, HSL; palmitic acid, Nrf2-inhibited HepG2 cells): fails to restore palmitic acid-decreased HSL mRNA expression
- increase of Nrf2 expression (Nrf2 [3]; obese mice aortae, ASP 50 mg/kg oral gavage daily for seven weeks): about 1.5 fold
- Nrf2 mRNA expression level (Nrf2 [3]; obese mice aortas, real-time PCR): increases mRNA expression level of Nrf2
- endothelial Nrf2/ARE binding, higher than the binding to impaired endothelial cells ([4]; 10 μm ASP): about 50%
- endothelial Nrf2/ARE binding, higher than the binding to impaired endothelial cells ([4]; 20 μm ASP): ~60%
- endothelial Nrf2/ARE binding, higher than the binding to impaired endothelial cells ([4]; 40 μm ASP): ~70%
- ARE binding activity ([4]; luciferase reporter assay): increased ARE binding activity
- ATP levels (obese mice livers [5]): increases ATP levels
- mRNA expression of HO-1, SIRT1, SIRT6, and SOD2 [6, 14]: dose-dependently increases mRNA expression of HO-1, SIRT1, SIRT6, and SOD2
- increase of HO-1 mRNA expression ([6]; palmitic acid-impaired HepG2 cells, cf. FIG. 13F): at least 2 fold
- mRNA expression levels of Nprc and Cd36 (primary adipocytes; primary adipocytes treated with ASP overnight): dose-dependently decreases mRNA expression levels of Nprc (FIG. 21A) and Cd36
- mRNA expression of Nrf2 (primary adipocytes; primary adipocytes, different doses of ASP for 24 hours): dose-dependently increases mRNA expression of Nrf2
- increase of Nrf2 mRNA expression (primary adipocytes; primary adipocytes, worded as embodiment, cf. FIG. 22B): at least 1.2 fold
- Nrf2 nuclear expression (western blotting) (Nrf2 [7]; 40 μmol/L ASP, endothelial cells under basal conditions): increases Nrf2 nuclear expressions
- Nrf2 nuclear translocation (western blotting) (Nrf2 [7]; endothelial cells): dose-dependently stimulates Nrf2 nuclear translocation; also recorded: increased nuclear Nrf2
- HO-1 expression (en-face immunofluorescence) (HO-1; EC-specific knockdown of Nrf2): EC-specific knockdown of Nrf2 abolishes the upregulation of HO-1 by ASP treatment
- HO-1 expression (en-face immunofluorescence) (HO-1; OB-24-treated aortas): fails to increase HO-1 expression
- endothelial HO-1 expression (en-face immunofluorescence) (HO-1; inhibition of Nrf2/ARE binding (ML385)): inhibition of Nrf2/ARE binding eliminates the endothelial upregulation of HO-1 by ASP treatment
- oxidative stress (DHE staining) (obese mice livers [8]): suppresses oxidative stress in obese mice livers
- EDRs (C57BL/6 mice aortae; ML385-treated aortas): fails to reverse impairment
- EDRs (C57BL/6 mice aortae; endothelial-cell specific Nrf2 knockdown murine aortas): fails to reverse the impairment
- acetylcholine-induced EDRs (C57BL/6 mice aortae; IL-1β-treated aortas, ex vivo): prevents IL-1-induced impairment in acetylcholine-induced EDRs; also recorded: prevents IL-1β-impaired EDRs; also recorded: rescued IL-1β-impairs EDRs
- acetylcholine-induced EDRs (C57BL/6 mice aortae; IL-1β-treated, HO-1-inhibited (OB-24) aortas): fails to rescue the impairment; also recorded: failed to prevent endothelial dysfunction in HO-1 inhibited aortae
- mRNA expression levels of fatty acid synthesis-related genes, including Fas and Acc2 (Npra, Hsl, Fas, Acc2): downregulated
- mRNA expression levels of lipolysis-related genes, Npra and Hsl (Npra, Hsl, Fas, Acc2): increases the mRNA expression levels of lipolysis-related genes, Npra and Hsl
- melting behavior of Nrf2 protein (CETSA) (Nrf2 protein; 0.3 ng/mL IL-1β-treated endothelial cells): changes the melting behavior of Nrf2 protein
- melting behavior of Nrf2 protein (CETSA) (Nrf2 protein; endothelial cells under basal conditions): changes the melting behavior of Nrf2 protein
- binding activity of ARE (Nrf2/ARE; [14]): dose-dependently increases the binding activity of ARE
- increase of Nrf2/ARE binding (Nrf2/ARE; palmitic acid-impaired HepG2 cells, worded as embodiment, cf. FIG. 13E): about 2 fold
- palmitic acid-induced oxidative stress (DHE staining) (HepG2 cells [9]): fails to attenuate palmitic acid-induced oxidative stress
- accumulated lipid droplets (H&E, Oil Red O) [10]: attenuates obesity-induced accumulated lipid droplets
- ROS level (endothelial cells; HO-1-silencing cells): fails to decrease ROS level
- oxidative stress (endothelial cells; endothelial cells): suppresses oxidative stress
- ROS generation / oxidative stress (DHE staining) (ROS [11]): suppresses elevated ROS generation; also recorded: suppressed oxidative stress
- mRNA expression levels of SDHC (SDHC): fails to upregulate the mRNA expression levels of SDHC
- ROS generation (ROS [12]; IL-1β, HO-1-inhibited aortas): fails to rescue the impairment (FIG. 2C) or decrease ROS generation
- IL-1β-induced ROS overproduction (ROS [12]; ML385-treated aortas): fails to reverse impairment (FIG. 4E) or suppress IL-1β-induced ROS overproduction
- IL-1β-induced ROS overexpression (DHE staining) (ROS [12]; endothelial Nrf2 knocked down): fails to suppress IL-1β-induced ROS overexpression
- ratio of perirenal adipose tissues to body weight ([13]; obese mice): decreased
- sizes of adipocytes (H&E staining) ([13]; obese mice): remarkably reduces the sizes of adipocytes
- decrease of perirenal adipose tissues in weight and sizes, average ([13]; worded as embodiment, cf. FIGS. 14A-14B): about 35%
